From US9249132B2, “Substituted bicyclic aromatic compounds as S-nitrosoglutathione reductase inhibitors” (Nivalis Therapeutics, Inc., priority 2010, dated 2016)

Tests used:
GSNOR = target: T1, GSNOR (Homo sapiens, UniProt P11766); assay: GSNOR assay (inhibition of GSNOR activity, change in 340 nm absorbance); type: biochemical; settings: 100 mM NaPO4 pH 7.4, 0.240 mM GSNO, 0.300 mM NADH, 0.5 μg/mL GSNO Reductase, 1% DMSO, 25° C.
T1 construct: made in house; host or cells: E. coli
Experimental: Various compounds were tested in vitro for their ability to inhibit GSNOR activity.
GSNOR expression and purification is described in Biochemistry 2000, 39, 10720-10729.
GSNOR Fermentation: Pre-cultures were grown from stabs of a GSNOR glycerol stock in 2XYT media containing 100 ug/ml ampicillin after an overnight incubation at 37° C. Cells were then added to fresh 2XYT (4 L) containing ampicillin and grown to an OD (A600) of 0.6-0.9 at 37° C. before induction. GSNOR expression was induced with 0.1% arabinose in an overnight incubation at 20° C.
GSNOR Purification: E. coli cell paste was lysed by nitrogen cavitation and the clarified lysate purified by Ni affinity chromatography on an AKTA FPLC (Amersham Pharmacia). The column was eluted in 20 mM Tris pH 8.0/250 mM NaCl with a 0-500 mM imidazole gradient. Eluted GSNOR fractions containing the Smt-GSNOR fusion were digested overnight with Ulp-1 at 4° C. to remove the affinity tag then re-run on the Ni column under the same conditions. GSNOR was recovered in the flowthrough fraction and for crystallography is further purified by Q-Sepharose and Heparin flowthrough chromatography in 20 mM Tris pH 8.0, 1 mM DTT, 10 uM ZnSO4.
GSNOR Assay: GSNO and enzyme/NADH Solutions are made up fresh each day. The solutions are filtered and allowed to warm to room temperature. GSNO solution: 100 mM NaPO4 (pH 7.4), 0.480 mM GSNO. 396 μL of GSNO Solution is added to a cuvette followed by 8 μL of test compound in DMSO (or DMSO only for full reaction control) and mixed with the pipette tip. Compounds to be tested are made up at a stock concentration of 10 mM in 100% DMSO. 2 fold serial dilutions are done in 100% DMSO. 8 μL of each dilution are added to an assay so that the final concentration of DMSO in the assay is 1%. The concentrations of compounds tested range from 100 to 0.003 μM. Enzyme/NADH solution: 100 mM NaPO4 (pH 7.4), 0.600 mM NADH, 1.0 μg/mL GSNO Reductase. 396 μL of the Enzyme/NADH solution is added to the cuvette to start the reaction. The cuvette is placed in the Cary 3E UV/Visible Spectrophotometer and the change in 340 nm absorbance/min at 25° C. is recorded for 3 minutes. The assays are done in triplicate for each compound concentration. IC50's for each compound are calculated using the standard curve analysis in the Enzyme Kinetics Module of SigmaPlot.
Final assay conditions: 100 mM NaPO4, pH 7.4, 0.240 mM GSNO, 0.300 mM NADH, 0.5 μg/mL GSNO Reductase, and 1% DMSO. Final volume: 800 μL/cuvette.

[1] = Mouse pharmacokinetic (PK) study; type: in vivo; settings: plasma, male BALB/c mice, PO 10 mg/kg, IV 2 mg/kg
Text: The mouse was used to determine the pharmacokinetics of compounds of the invention. This species is widely used to assess the bioavailability of compounds by administering both oral (PO) and intravenous (IV) test articles. Efficacy of the compounds of the invention was compared by assessing plasma exposure in male BALB/c mice either via IV or PO administration at the times of peak activity.
Compounds of the invention were reconstituted in a phosphate buffered saline (PBS)/10% Solutol (HS 15) clear solution resulting in a concentration of 0.2 mg/mL and administered to mice (2 mg/kg) as a single IV dose. Animals were dosed via the lateral tail vein. […] The plasma was transferred into labeled polypropylene tubes and frozen at −70° C. until analyzed by LC/MS/MS.
The compounds of the invention were reconstituted in 40% Propylene Glycol/40% Propylene Carbonate/20% of a 5% Sucrose clear solution resulting in a concentration of 2 mg/mL and administered to mice (10 mg/kg) as a single oral dose via gavage. […] The plasma was transferred into labeled polypropylene tubes and frozen at −70° C. until analyzed by LC/MS/MS.
Plasma samples at each timepoint were analyzed using a LC-MS/MS with a lower limit of quantification (LLOQ) of 1 ng/mL. […]
In addition to the above PK parameters, bioavailability (% F) was calculated.

[2] = tested on: dextran sodium sulfate (DSS)-induced IBD; assay: Acute prophylactic model of DSS-induced IBD; type: in vivo, mouse
Text: Acute and chronic models of dextran sodium sulfate (DSS)-induced IBD in mice were used to explore efficacy of GSNORi against this disease. Acute and chronic DSS-induced IBD are widely used and well characterized models that induce pathological changes in the colon similar to those observed in the human disease. In these models and in human disease, epithelial cells within the crypts of the colon are disrupted, leading to dysfunction of the epithelial barrier and the ensuing tissue inflammation, edema, and ulceration. GSNORi therapy may benefit IBD by restoring s-nitrosoglutathione (GSNO) levels, and thus prevent or reverse the epithelial barrier dysfunction. Experimental IBD was induced by administration of DSS in the drinking water of male C57B1/6 mice (N=8 to 10 mice per group) for 6 consecutive days. GSNORi was dosed orally at doses of 0.1 to 10 mg/kg/day for 10 days starting two days prior to and continuing two days post DSS exposure. Two days post DSS exposure, the effect of GSNORi was assessed in a blinded fashion via endoscopy and histopathology using a five point scale ranging from a score=0 (normal tissue) through a score=4 (ulcerative tissue damage and marked pathological changes). Levels of circulating cytokines involved in inflammatory pathways were also assessed. The effect of GSNORi was compared to vehicle treated controls. The corticosteroid, prednisolone, was used as the positive control in this study and was administered daily at 3 mg/kg/day via oral dosing. Naïve mice (N=5) were also assessed as a normal tissue control.

T1 sequence (P11766 whole entry): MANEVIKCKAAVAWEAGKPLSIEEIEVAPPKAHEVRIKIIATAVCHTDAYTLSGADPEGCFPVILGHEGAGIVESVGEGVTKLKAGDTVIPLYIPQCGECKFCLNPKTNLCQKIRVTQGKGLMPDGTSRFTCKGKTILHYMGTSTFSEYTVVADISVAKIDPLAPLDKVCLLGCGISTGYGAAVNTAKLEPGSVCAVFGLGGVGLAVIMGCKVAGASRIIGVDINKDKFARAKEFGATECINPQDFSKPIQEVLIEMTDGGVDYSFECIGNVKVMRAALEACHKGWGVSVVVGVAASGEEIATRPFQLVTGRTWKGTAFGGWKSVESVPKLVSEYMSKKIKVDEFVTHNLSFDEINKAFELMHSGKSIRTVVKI

IC50 (GSNOR) | SMILES | other results
< 100 nM | COc1c(-c2ccc(C(=O)O)cc2)ccc2cc(O)ccc12 [Example 24, 4-(6-hydroxy-1-methoxynaphthalen-2-yl)benzoic acid] | 
< 50 nM | O=C(O)c1ccc(-c2cc3ccc(O)cc3cc2Cl)cc1 [Example 22, 4-(3-chloro-6-hydroxynaphthalen-2-yl)benzoic acid] | 
< 100 nM | Oc1ccc2cc(-c3ccc(-c4nnn[nH]4)cc3)ccc2c1 [Example 18, 6-(4-(1H-tetrazol-5-yl)phenyl)naphthalen-2-ol] | 
< 50 nM | Cc1cc(C(=O)O)ccc1-c1ccc2c(F)c(O)ccc2c1 [Example 32, 4-(5-fluoro-6-hydroxynaphthalen-2-yl)-3-methylbenzoic acid] | 
< 50 nM | O=C(O)c1ccc(-c2ccc3cc(O)ccc3c2Cl)cc1 [Example 17, 4-(1-chloro-6-hydroxynaphthalen-2-yl)benzoic acid] | 
< 50 nM | N#Cc1cc(C(=O)O)ccc1-c1ccc2cc(O)ccc2c1 [Example 6, 3-cyano-4-(6-hydroxynaphthalen-2-yl)benzoic acid] | 
< 100 nM | CN(C)c1cc(C(=O)O)ccc1-c1ccc2cc(O)ccc2c1 [Example 5, 3-(dimethylamino)-4-(6-hydroxynaphthalen-2-yl)benzoic acid] | 
< 50 nM | O=C(O)c1ccc(-c2cc3ccc(O)cc3cc2F)cc1 [Example 23, 4-(3-fluoro-6-hydroxynaphthalen-2-yl)benzoic acid] | 
< 50 nM | O=C(O)c1ccc(-c2cc3ccc(O)cc3cc2F)c(Cl)c1 [Example 21, 3-chloro-4-(3-fluoro-6-hydroxynaphthalen-2-yl)benzoic acid] | 
< 50 nM | O=C(O)c1ccc(-c2ccc3c(F)c(O)ccc3c2)c(Cl)c1 [Example 29, 3-chloro-4-(5-fluoro-6-hydroxynaphthalen-2-yl)benzoic acid] | 

The next lines start with the molecule.

SMILES | IC50 (GSNOR) | other results
O=C(O)c1ccc(-c2ccc3cc(O)ccc3c2)cc1 [Example 33, 4-(6-hydroxynaphthalen-2-yl)benzoic acid] | < 100 nM | 
O=C(O)c1ccc(-c2ccc3c(F)c(O)ccc3c2)cc1 [Example 30, 4-(5-fluoro-6-hydroxynaphthalen-2-yl)benzoic acid] | < 50 nM | 
N#Cc1c(-c2ccc(C(=O)O)cc2)ccc2c(F)c(O)ccc12 [Example 27, 4-(1-cyano-5-fluoro-6-hydroxynaphthalen-2-yl)benzoic acid] | < 50 nM | 
O=C(O)c1ccc(-c2ccc3cc(O)ccc3c2Br)cc1 [Example 12, 4-(1-bromo-6-hydroxynaphthalen-2-yl)benzoic acid] | < 50 nM | 
O=C(O)c1ccc(-c2ccc3cc(O)ccc3c2)c(F)c1 [Example 2, 3-fluoro-4-(6-hydroxynaphthalen-2-yl)benzoic acid] | < 50 nM | bioavailability [1]: > 40%; colon injury (in words) ([2]; acute DSS-induced IBD): attenuated colon injury; decrease of percent of mice presenting with severe colon injury scores via histopathology, of vehicle control ([2]; acute model, oral 10 mg/kg/day for 10 consecutive days, prophylactic dosing regimen): 26%; decrease of percent of mice presenting with severe endoscopy scores, of vehicle control ([2]; acute model, oral 10 mg/kg/day for 10 days, p<0.05): 58%
O=C(O)c1ccc(-c2ccc3c(F)c(O)ccc3c2)c(F)c1 [Example 31, 3-fluoro-4-(5-fluoro-6-hydroxynaphthalen-2-yl)benzoic acid] | < 50 nM | 
O=C(O)c1ccc(-c2ccc3cc(O)ccc3c2F)cc1 [Example 25, 4-(1-fluoro-6-hydroxynaphthalen-2-yl)benzoic acid] | < 50 nM | 
N#Cc1c(-c2ccc(C(=O)O)cc2F)ccc2cc(O)ccc12 [Example 28, 4-(1-cyano-6-hydroxynaphthalen-2-yl)-3-fluorobenzoic acid] | < 50 nM | 
O=C(O)c1ccc(-c2ccc3cc(O)ccc3c2)c(C(F)(F)F)c1 [Example 20, 4-(6-hydroxynaphthalen-2-yl)-3-(trifluoromethyl)benzoic acid] | < 100 nM | 
N#Cc1c(-c2ccc(C(=O)O)cc2)ccc2cc(O)ccc12 [Example 15, 4-(1-cyano-6-hydroxynaphthalen-2-yl)benzoic acid] | < 50 nM | 
COc1cc(C(=O)O)ccc1-c1ccc2cc(O)ccc2c1 [Example 3, 4-(6-hydroxynaphthalen-2-yl)-3-methoxybenzoic acid] | < 100 nM | 
Cc1cc2cc(O)ccc2cc1-c1ccc(C(=O)O)cc1 [Example 26, 4-(6-hydroxy-3-methylnaphthalen-2-yl)benzoic acid] | < 100 nM | 
